# Measured values from article PMC13351981, “A multiscale screening platform for rapid GPCR variant profiling reveals color-tuned JSR1 mutants” (Biophysical Journal, 2025).
# Tests used:
# Assay in all cases: UV/Vis absorption by HPLC-SEC diode array after reconstitution and purification
# Format in all cases: binding
# Settings in all cases: 50 uM 9-cis retinal reconstitution; covalent (Schiff base to K321); pH 6.5, 20 C, LMNG/CHS
# [1] = target: T1, Jumping Spider Rhodopsin 1 (JSR1) (Hasarius adansoni, UniProt B1B1U5, S199V)
# T1 construct: gene HaRh1; JSR1 WT + C-terminal 3C site, Twin-Strep, TEV, eGFP, His8; Hi5 insect cells (baculovirus); tags removed by HRV 3C; monomer in LMNG/CHS
# T1 sequence (B1B1U5 entry or part of it S199V): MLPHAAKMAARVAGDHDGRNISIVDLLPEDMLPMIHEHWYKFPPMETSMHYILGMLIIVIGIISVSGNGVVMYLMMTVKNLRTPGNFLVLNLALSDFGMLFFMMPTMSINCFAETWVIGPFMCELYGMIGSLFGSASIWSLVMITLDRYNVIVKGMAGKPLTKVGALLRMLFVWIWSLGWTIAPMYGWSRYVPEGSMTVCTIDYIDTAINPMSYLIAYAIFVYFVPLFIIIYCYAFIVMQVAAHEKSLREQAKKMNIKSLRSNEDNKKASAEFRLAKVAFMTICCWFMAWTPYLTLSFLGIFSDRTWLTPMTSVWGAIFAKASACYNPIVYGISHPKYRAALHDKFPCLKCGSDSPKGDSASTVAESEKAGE
# [2] = target: T2, Jumping Spider Rhodopsin 1 (JSR1) (Hasarius adansoni, UniProt B1B1U5)
# T2 construct: gene HaRh1; JSR1 WT + C-terminal 3C site, Twin-Strep, TEV, eGFP, His8; Hi5 insect cells (baculovirus); tags removed by HRV 3C; monomer in LMNG/CHS
# T2 sequence (B1B1U5 entry or part of it): as the sequence (B1B1U5 entry or part of it S199V) above, with V199S counted along it
# [3] = target: T3, Jumping Spider Rhodopsin 1 (JSR1) (Hasarius adansoni, UniProt B1B1U5, S199F)
# T3 construct: gene HaRh1; JSR1 WT + C-terminal 3C site, Twin-Strep, TEV, eGFP, His8; Hi5 insect cells (baculovirus); tags removed by HRV 3C; monomer in LMNG/CHS
# T3 sequence (B1B1U5 entry or part of it S199F): as the sequence (B1B1U5 entry or part of it S199V) above, with V199F counted along it
# [4] = target: T4, Jumping Spider Rhodopsin 1 (JSR1) (Hasarius adansoni, UniProt B1B1U5, S199H)
# T4 construct: gene HaRh1; JSR1 WT + C-terminal 3C site, Twin-Strep, TEV, eGFP, His8; Hi5 insect cells (baculovirus); tags removed by HRV 3C; monomer in LMNG/CHS
# T4 sequence (B1B1U5 entry or part of it S199H): as the sequence (B1B1U5 entry or part of it S199V) above, with V199H counted along it
# [5] = target: T5, Jumping Spider Rhodopsin 1 (JSR1) (Hasarius adansoni, UniProt B1B1U5, S199Y)
# T5 construct: gene HaRh1; JSR1 WT + C-terminal 3C site, Twin-Strep, TEV, eGFP, His8; Hi5 insect cells (baculovirus); tags removed by HRV 3C; monomer in LMNG/CHS
# T5 sequence (B1B1U5 entry or part of it S199Y): as the sequence (B1B1U5 entry or part of it S199V) above, with V199Y counted along it
# [6] = target: T6, Jumping Spider Rhodopsin 1 (JSR1) (Hasarius adansoni, UniProt B1B1U5, S199I)
# T6 construct: gene HaRh1; JSR1 WT + C-terminal 3C site, Twin-Strep, TEV, eGFP, His8; Hi5 insect cells (baculovirus); tags removed by HRV 3C; monomer in LMNG/CHS
# T6 sequence (B1B1U5 entry or part of it S199I): as the sequence (B1B1U5 entry or part of it S199V) above, with V199I counted along it
# [7] = target: T7, Jumping Spider Rhodopsin 1 (JSR1) (Hasarius adansoni, UniProt B1B1U5, S199L)
# T7 construct: gene HaRh1; JSR1 WT + C-terminal 3C site, Twin-Strep, TEV, eGFP, His8; Hi5 insect cells (baculovirus); tags removed by HRV 3C; monomer in LMNG/CHS
# T7 sequence (B1B1U5 entry or part of it S199L): as the sequence (B1B1U5 entry or part of it S199V) above, with V199L counted along it
compound,measurement,setting,value
CC1=C(/C=C/C(C)=C\C=C\C(C)=C\C=O)C(C)(C)CCC1 [9-cis retinal],UV/Vis absorption by HPLC-SEC diode array after reconstitution and purification,[1],These mutations cause a full deprotonation in the 9-cis retinal-bound ground state
same,UV/Vis absorption by HPLC-SEC diode array after reconstitution and purification,[2],We observed that all mutants incorporated 9-cis retinal successfully|established workflow with 9-cis retinal-reconstituted JSR1
same,UV/Vis absorption by HPLC-SEC diode array after reconstitution and purification,[3],These mutations cause a full deprotonation in the 9-cis retinal-bound ground state
same,UV/Vis absorption by HPLC-SEC diode array after reconstitution and purification,[4],These mutations cause a full deprotonation in the 9-cis retinal-bound ground state
same,UV/Vis absorption by HPLC-SEC diode array after reconstitution and purification,[5],These mutations cause a full deprotonation in the 9-cis retinal-bound ground state
same,UV/Vis absorption by HPLC-SEC diode array after reconstitution and purification,[6],These mutations cause a full deprotonation in the 9-cis retinal-bound ground state
same,UV/Vis absorption by HPLC-SEC diode array after reconstitution and purification,[7],These mutations cause a full deprotonation in the 9-cis retinal-bound ground state
